For data set [1], the system named is endogenous huntingtin S421 phosphorylation. Nature of the data set: Phosphorylation of S421 in primary striatal neurons (Western blot). The following applies: rat striatal neurons, 1 μM FK506. The class given is cell-based. As to the method:
(§1) Cell culture, transfection and drug treatments. Primary cultures of striatal neurons were prepared from E17 Sprague Dawley rats and transfected at 4 days in vitro by a modified calcium phosphate technique (Saudou et al., 1998). Mouse neuronal cells derived from wildtype huntingtin mice (neuronal cells, +/+) and from Hdh^Q109 knock-in mice (109Q/109Q) were cultured as previously described (Trettel et al., 2000) and transfected with Lipofectamine 2000 (Invitrogen, Breda, The Netherlands). When cotransfected (FIG. 3A), the ratio 480-17Q/Akt/CaNA-ΔCaM/CaNB was 1:0.5:1:1. Human HEK 293 cells were cultured in DMEM supplemented with 10% bovine calf serum (BCS) and were transfected by the calcium phosphate technique. SHSY-5Y cells and Jurkat T cells were grown in RPMI supplemented with 10% BCS. Jurkat T cells were transferred to tyrodes buffer (137 mM NaCl, 3 mM KCl, 20 mM Hepes, 2 mM MgCl2, 1 mM CaCl2, 5.6 mM glucose, 0.3 mg/ml BSA; 4×10^6 cells/ml) prior addition of FK506 (1 μM) and/or ionomycin (2.5 μM).
(§2) Western blot analysis. After transfection/incubation with drugs, cells were washed with ice cold phosphate-buffered saline prior to scraping and lysis. […] Quantification of the signal was performed by densitometric scanning of the film using ImageJ software.

A further data set has as its system Parkinson's disease. The note with it: cited from earlier work.
The subject of data set [2] is endogenous huntingtin S421 phosphorylation. Nature of the data set: Phosphorylation of endogenous huntingtin at S421 in Jurkat T cells (Western blot). The following applies: ionomycin 2.5 μM. The class given is cell-based, human. As to the method: as §1, §2
(In general: Immunoblotting shows a protein as a band on a membrane.)

The test system is the same in data set [3]. Nature of the data set: Immunofluorescence of phospho-S421-huntingtin in SHSY-5Y cells transfected with wild-type CaNA/CaNB. Format: cell-based, human. The note with it: 1 μM ionomycin, 15 min. As to the method:
Immunofluorescence experiments. SHSY-5Y cells were grown on uncoated glass coverslips, transfected with wild-type CaNA/B for 24 hours and treated for 15 min with 1 μM ionomycin (Sigma) or left untreated. Cells were fixed with 4% paraformaldehyde-PHEM buffer for 20 min (in mM: PIPES, 120; HEPES, 50, EGTA, 20; Mg-acetate 4) and incubated with antiphospho-S421-huntingtin-763 (1:100) and anti-CaNA (1:200; Cat#C1956, Sigma) antibodies. Pictures were captured with a three-dimensional deconvolution imaging system as previously described (Gauthier et al., 2004). Mean fluorescence intensity of the phospho-S421 signal was next quantified using Metamorph software (Universal Imaging Corp, Princeton, N.J., USA). For each pair of cells (transfected/non transfected), signal from the transfected cell was standardized by giving a value of 100 to the non-transfected cell. Only non-mitotic cells of the same approximate size were considered. More than 30 cells in total were analyzed in two independent experiments.

In data set [4] the test system is BDNF-containing vesicles transport. In words: BDNF-containing vesicle transport in primary cortical neurons expressing FL-htt-75Q (videomicroscopy). The note with it: IGF-1 treatment. The class given is cell-based, rat. As to the method: (§3) Videomicroscopy Experiments and Analyses. For videoexperiments rat primary cortical neurons, +/+, and 109Q/109Q cells established from Hdh^Q111 knock-in mouse were prepared, cultured and transfected as previously described (Gauthier et al., 2004; Humbert et al., 2002; Saudou et al., 1998; Trettel et al., 2000). In some cases, primary cultures of cortical neurons are electroporated with the rat neuron Nucleofector® kit according to the supplier's manual (Amaxa, Cologne). Forskolin ([…]; Sigma) and IBMX ([…]; Sigma) were added to the cultures 5 hours after transfection.
(§4) Videomicroscopy experiments were done two or four days after transfection. Cells were co-transfected with BDNF-eGFP and various constructs of htt or the corresponding empty vectors with a DNA ratio of 1:4. Live videomicroscopy was carried out using an imaging system previously detailed (Gauthier et al., 2004). Cells were grown on glass coverslip that was mounted in a Ludin chamber. The microscope and the chamber were kept at 37° C. (33° C. for knock-in cells). Stacks of 10-15 images with a Z-step of 0.3 μm were acquired with a 100× PlanApo N.A. 1.4 oil immersion objective coupled to a piezo device (PI). Images were collected in stream mode using a Cool Snap HQ camera (Ropper Scientific) set at 2×2 binning with an exposure time of 50 to 100 ms (frequency of 2). […]

Data set [5] shares this test system. Nature of the data set: BDNF-containing vesicle transport in 109Q/109Q cells (videomicroscopy). Format: cell-based, mouse. The note with it: IGF-1 treatment. As to the method: as §3, §4
Data set [6] has as its target GST-huntingtin (amino acids 384 to 467 of human huntingtin fused to GST), phosphorylated at S421 by Akt (UniProt P42858).
For data set [7], the target named is GST-huntingtin (amino acids 384 to 467 of human huntingtin fused to GST), before phosphorylation (UniProt P42858).

We go through 6 compounds from patent US20080300178A1, “Method For Treating Huntington's Disease by Inhibiting Dephosphorylation of Huntingtin at S421” (Insitut Curie, priority 2006, published 2008).

Entries after “also recorded” stand apart in the source; their conditions may differ.

With `C=CC[C@@H]1/C=C(\C)C[C@H](C)C[C@H](OC)[C@H]2O[C@@](O)(C(=O)C(=O)N3CCCC[C@H]3C(=O)O[C@H](/C(C)=C/[C@@H]3CC[C@@H](O)[C@H](OC)C3)[C@H](C)[C@@H](O)CC1=O)[C@H](C)C[C@@H]2OC` [FK506], in data set [1], the “time for which S421 phosphorylation remained sustained” value is “at least 6 hours”.

In the case of `CCC(C)(C)C(=O)C(=O)N1CCC[C@H]1C(=O)OCCCc1cccnc1` [GPI-1046], the “outcome of clinical trials” value with Parkinson's disease is recorded as “have failed”.

With `C[C@H](CCC(=O)O)C[C@H](C)C[C@H](C)C(=O)/C=C(\O)[C@H](C)C[C@H](C)C/C=C/[C@@H](C)[C@@H](O)[C@@H](C)[C@@H](O)C[C@@H]1CC[C@@](C)([C@H]2CC[C@@](C)([C@@H](C)O)O2)O1` [ionomycin], the “S421 phosphorylation after ionomycin” value in data set [2] was “rapid dephosphorylation of huntingtin on S421”. The figures for the “huntingtin S421 phosphorylation (mean fluorescence intensity)” value in data set [3] and in data set [3] (listed as Ionomycin) were “reduction of huntingtin phosphorylation at S421” and “decreased huntingtin S421 phosphorylation”, respectively.

For “IGF-1: IGF-1, activator of the IGF-1/Akt pathway”, in data set [4], the “mean velocity of BDNF-containing vesicles” value is listed as “statistically significant increase in the velocity of BDNF vesicles; also recorded: significantly increases the mean velocity” and the “pausing time of BDNF-containing vesicles” value is listed as “decreased the pausing time; also recorded: decreases their pausing time”. Also, in data set [5], the “pausing time of BDNF-containing vesicles” value was “decreasing pausing time; also recorded: decreases pausing time” and the “velocity of BDNF-containing vesicles” value is reported as “statistically increasing velocity; also recorded: increases velocity”.

With “purified calcineurin (native protein isolated from bovine brain)”, the “dephosphorylation of S421 (immunoblot with the anti-phospho-huntingtin-S421-763 antibody)” value in data set [6] is “calcineurin dephosphorylates S421 of huntingtin in vitro in a time and dose-dependent manner”.

Consider recombinant Akt, for which, in data set [7], the “phosphorylation of S421 (in vitro kinase assay, immunoblot)” value is on record as “resulting in the phosphorylation of GST-huntingtin at S421”.
